Several values for one entry are separate records, joined by “and”; a condition that tells them apart may be missing. Equal entries are not always repeated.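 Method: 48-hour compound exposure of cells in 96-well plates, five concentrations, linear interpolation of endpoints. The concentration for full growth arrest is given as TGI.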
What was measured:
Experiment in all cases: growth of human tumour cells (NCI), 48 h
[1] = test system: A549 NSCLC
[2] = test system: CCRF-CEM leukemia
[3] = test system: HCT-15 colon
[4] = test system: HL-60(TB) leukemia
[5] = test system: KM12 colon
[6] = test system: NCI-H23 lung
[7] = test system: NCI-H460 lung
[8] = test system: PC-3 prostate
[9] = test system: TK-10 renal
[10] = test system: K-562 leukemia

Row | Compound | TGI [1] | TGI [2] [µM] | TGI [3] | TGI [4] | TGI [5] | TGI [6] | TGI [7] | TGI [8] | TGI [9] | TGI [10]
1 | COC(=O)NC1C(C)OC(OC2C/C=C(/C)C3C=CC4C(OC5CC(OC6CC(OC7CC(O)C(O)C(C)O7)C(OC7CC(O)C(OC)C(C)O7)C(C)O6)C(O)C(C)O5)C(C)CC(C)C4C3(C)/C(O)=C3\C(=O)OC4(CC(C)C(CO)=CC4/C=C\2C)C3=O)CC1(C)[N+](=O)[O-] (stereo not drawn) | > 100 µM | 15.9 | 36.4 µM | 11.4 µM | 20.5 µM | 41.5 µM | 4.86 µM | > 100 µM | 40.6 µM | –
2 | Nc1nc(OCC2CCCCC2)c2[nH]cnc2n1 | 81.5 µM | 43.6 | > 100 µM | 59.8 µM | > 100 µM | > 100 µM | > 67.9 µM | 41.2 µM | 30.5 µM | > 100 µM
3 | COC(=O)/C=C1\CCCN1CCc1cc2c(cc1CC#N)OCO2 | > 100 µM | > 100 | > 100 µM | > 100 µM | > 100 µM | > 100 µM | > 100 µM | > 100 µM | > 100 µM | > 100 µM
4 | CS(=O)(=O)OCCN(CCOS(C)(=O)=O)c1ccc(/C=N/Nc2ncnc3nc[nH]c23)cc1 | 96.6 µM | > 100 | > 100 µM | 27.1 µM | 34.8 µM | 39 µM | 34.3 µM | – | 63.6 µM | > 100 µM
5 | O=C(CSc1nc2ccc(I)cc2c(=O)n1Cc1ccccc1)NN1C(=O)c2ccccc2C1=O | 72.5 µM | – | > 100 µM | 33.5 µM | > 100 µM | 44.7 µM | > 100 µM | 19.6 µM | 30.4 µM | > 100 µM
6 | Cc1[nH]n(-c2ccccc2)c(=O)c1C(N(CCc1ccccc1)C1=NCC(C)S1)(C(F)(F)F)C(F)(F)F (stereo not drawn) | 83.7 µM | 68.7 | 41.1 µM | 52.5 µM | > 100 µM | 20 µM | 38.2 µM | 84.9 µM | > 100 µM | > 100 µM
7 | NCCNCCNc1ccc(NCCNCCN)c2c1C(=O)c1c(O)ccc(O)c1C2=O | > 100 µM | > 100 | > 100 µM | – | > 100 µM | > 100 µM | > 100 µM | > 100 µM | > 100 µM | > 100 µM
8 | C[N+](C)(C)CCN[N+]1(C)CCCc2ccccc21 (stereo not drawn) | > 100 µM | – | > 100 µM | > 100 µM | > 100 µM | > 100 µM | > 100 µM | > 100 µM | > 100 µM | > 100 µM
9 | CCOP(=O)(OCC)C(Nc1cccc(F)c1)c1ccc(N(C)C)cc1 (stereo not drawn) | > 100 µM | > 100 | > 100 µM | > 100 µM | > 100 µM | > 100 µM | > 100 µM | > 100 µM | > 100 µM | > 100 µM
10 | Cc1ccc(N=NC(C2=NC(=O)CS2)c2nc3ccccc3[nH]2)cc1 (stereo not drawn) | > 100 µM | > 100 | > 100 µM | > 100 µM | > 100 µM | > 100 µM | > 100 µM | – | > 100 µM | > 100 µM
11 | O=c1c2cc(S(=O)(=O)O)ccc2nc(COc2ccc(Oc3ccc(Cl)cc3Cl)cc2)n1C(=S)Nc1ccc(Cl)cc1 | 53.1 µM | > 100 | 50.5 µM | 4.07 µM | 71.4 µM | 36.2 µM | 35.8 µM | > 100 µM | 40.4 µM | 30.8 µM
12 | Cc1ccc([N+](=O)[O-])cc1S(=O)(=O)Nc1ccc(C2=NOC(c3ccccc3O)C2)cc1 (stereo not drawn) | 71.8 µM | > 100 | 85.3 µM | 21.4 µM | 38.2 µM | 98.4 µM | 25.3 µM | > 100 µM | > 100 µM | > 100 µM
13 | CC(=O)OCC1OC(Oc2cc(C)c(O)cc2C/C=C(\C)CC/C=C(\C)C[C@@H](C=C(C)C)OC(C)=O)C(O)C(OC(C)=O)C1OC(C)=O (stereo partly drawn) | > 50 µM | 29.4 | > 50 µM | 21 µM | > 50 µM | > 50 µM | > 50 µM | > 50 µM | > 50 µM | 35.4 µM
14 | CC1(C=O)CCC23COC4(CCC5C6(C)CCC(OC7OCC(OC8OC(CO)C(O)C(OC9OC(CO)C(O)C(O)C9O)C8OC8OCC(O)C(O)C8O)C(O)C7OC7OC(CO)C(O)C(O)C7O)C(C)(C)C6CCC5(C)C4(C)CC2O)C3C1 (stereo not drawn) | 3.53 µM | 0.789 | 2.86 µM | 1.41 µM | 1.42 µM | – | 2.55 µM | 2.67 µM | 3.33 µM | > 100 µM
15 | c1c2c(cc3c1OCO3)-c1cc3ccc4c(c3c[n+]1CC2)OCO4 | > 12.5 µM | > 12.5 | 4.77 µM | > 4.93 µM | > 5.45 µM | > 12.5 µM | 3.55 µM | > 12.5 µM | > 12.5 µM | > 12.5 µM
16 | CN(C)CCCN1c2ccc([N+](=O)[O-])cc2CCc2cc([N+](=O)[O-])ccc21 | 32.7 µM and 31.5 µM | 28.4 | 33 µM and 33.6 µM | 31 µM and 30.1 µM | 28.6 µM and 33.1 µM | 33.7 µM and 34.9 µM | 30 µM and 26.2 µM | 31.3 µM and 27 µM | 23.3 µM and 24.3 µM | 59.5 µM and 31.2 µM

Source: PubChem BioAssay (NCI)
